Data taken from patent US20220212192A1, “Microfluidic Device for High-Throughput Screening of Tumor Cell Adhesion and Motility” (Northeastern University, priority 2019, published 2022).

Tested on: 3D NHL spheroids with active immune cells
Test: Proteomic analysis of perfusate media from 3D NHL (lymphoma) spheroids on-chip
Assay type: cell-based
Settings: significantly higher than lenalidomide-treated monocultures or spheroids with inactive immune cells, data not shown

Nc1cccc2c1CN(C1CCC(=O)NC1=O)C2=O (centres unmarked) [lenalidomide]
secretion of IL8: increased secretion
secretion of cytolytic granzyme B: increased secretion
